The text below walks through data of the supplement of paper PMC11061612.

For test [1], the system named is COR-L279 (Small Cell Lung Carcinoma). As to the kind of experiment: Bliss excess, mean over the matrix (fraction); higher = more synergy. In a few lines:
(§1)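 Cell lines grown in DMEM/F12 or RPMI with 10% FBS were plated in 1536-well plates and held 24 hours at 37°C, 5% CO2 before 72 hours of exposure to two-drug dose matrices, with DMSO typically at 0.2%. CellTiter-Glo 2.0 luminescence gave viability, which was converted to inhibition. Vehicle wells were set to 0 and blank wells to 1. Combination Emax is the second-highest inhibition in the matrix, and Bliss excess is the observed combination effect minus the expected EA + EB − EA·EB, where EA and EB are the single-agent effects.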

The subject of test [2] is ST486 (Burkitt's Lymphoma). The description is as above. The essentials:
as §1

The subject of test [3] is H9 (T-Cell Non-Hodgkin's Lymphoma). The description is as above. The essentials:
as §1

Test [4] relates to IM-95 (Gastric Carcinoma). The test is described as above. In a few lines: as §1
For test [5], the system named is KY821 (Acute Myeloid Leukemia). The description is as above. In a few lines:
as §1

The subject of test [6] is H9 (T-Cell Non-Hodgkin's Lymphoma). The test can be described thus: combination Emax (second highest fraction inhibited in the dose matrix, 72 h); higher = more inhibition; extreme values may be limits of the assay. The essentials:
as §1

The subject of test [7] is IM-95 (Gastric Carcinoma). The test is described as above. In a few lines:
as §1

For test [8], the system named is KY821 (Acute Myeloid Leukemia). Described as above. In a few lines:
as §1

The structures appear in SMILES notation.
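Throughout, for Bliss excess, mean over the matrix: after 72 h of two-drug dosing.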

Regarding `C[C@@H](Nc1cc(F)cc(F)c1)c1cc(C(=O)N(C)C)cc2c(=O)cc(N3CCOCC3)oc12` [AZD8186] + C1CN(CCC1(C(=O)N[C@@H](CCO)C2=CC=C(C=C2)Cl)N)C3=NC=NC4=C3C=CN4 [AZD5363] (first compound max 10 µM, 7x7, partner max 10 µM), the Bliss excess in test [1] is 0.0622; in test [2], -0.0265.

Turning to `CN(CCO)CC[C@H](CSc1ccccc1)Nc1ccc(S(=O)(=O)NC(=O)c2ccc(N3CCC([C@@H](O)c4ccccc4-c4ccc(Cl)cc4)CC3)cc2)cc1S(=O)(=O)C(F)(F)F` [AZD4320] + CC(=O)O[C@H]1C(=O)[C@@]2(C)[C@H]([C@H](OC(=O)c3ccccc3)[C@]3(O)C[C@H](OC(=O)[C@H](O)[C@@H](NC(=O)c4ccccc4)c4ccccc4)C(C)=C1C3(C)C)[C@]1(OC(C)=O)CO[C@@H]1C[C@@H]2O [Paclitaxel] (first compound max 1 µM, 7x7, partner max 3 µM), the Bliss excess in test [1] is 0.0141; in test [2], -0.0016.

As to `O=C(c1cc(Cc2n[nH]c(=O)c3ccccc23)ccc1F)N1CCN(C(=O)C2CC2)CC1` [Olaparib] + CN(CC[C@H](CSC1=CC=CC=C1)NC2=C(C=C(C=C2)S(=O)(=O)NC(=O)C3=CC=C(C=C3)N4CCC(CC4)[C@H](C5=CC=CC=C5C6=CC=C(C=C6)Cl)O)S(=O)(=O)C(F)(F)F)CCO [AZD4320] (first compound max 10 µM, 7x7, partner max 1 µM), the Bliss excess was 0.0282 in test [1] and -0.0192 in test [2].

For the compound `C=CCn1c(=O)c2cnc(Nc3ccc(N4CCN(C)CC4)cc3)nc2n1-c1cccc(C(C)(C)O)n1` [AZD1775] + CCc1c2c(nc3ccc(O)cc13)-c1cc3c(c(=O)n1C2)COC(=O)[C@]3(O)CC [SN-38] (first compound max 1 µM, partner max 0.3 µM), the Bliss excess is -0.0425 in test [1] and -0.0359 in test [2].

As for `Cc1nc(-c2cn3c(n2)-c2ccc(-c4cnn(C(C)(C)C(N)=O)c4)cc2OCC3)n(C(C)C)n1` [Taselisib] + O=C(Nc1ccc2[nH]nc(-c3ccncc3)c2c1)[C@@H]1CCN(CC(=O)N2CCN(c3ccc(-c4ncccn4)cc3)CC2)C1 [SCH772984] (first compound max 10 µM, 7x7, partner max 5 µM), the Bliss excess in test [1] stood at 0.0833; in test [2], 0.0569.

Consider `C[C@@H](Oc1cc(-c2cnn(C3CCNCC3)c2)cnc1N)c1c(Cl)ccc(F)c1Cl` [Crizotinib] + CC1=C(C(=CC=C1)Cl)NC(=O)C2=CN=C(S2)NC3=CC(=NC(=N3)C)N4CCN(CC4)CCO [Dasatinib] (first compound max 10 µM, 7x7, partner max 2 µM), for which the results for the Bliss excess in test [1] and in test [2] were 0.0599 and 0.0506, respectively.

As for `Cc1cc2ncnn2cc1Nc1ncc2c(n1)n(C1CCOCC1)c(=O)n2C` [AZD7648] + COc1cc([C@@H]2c3cc4c(cc3[C@@H](O[C@@H]3O[C@@H]5CO[C@@H](C)O[C@H]5[C@H](O)[C@H]3O)[C@H]3COC(=O)[C@H]23)OCO4)cc(OC)c1O [Etoposide] (first compound max 10 µM, 7x7, partner max 10 µM), the Bliss excess in test [1] was 0.149; in test [2], 0.0989.

For the compound `C[C@@H](Oc1cc(-c2cnn(C3CCNCC3)c2)cnc1N)c1c(Cl)ccc(F)c1Cl` [Crizotinib] + Cn1cnc2c(F)c(Nc3ccc(Br)cc3Cl)c(C(=O)NOCCO)cc21 [Selumetinib] (first compound max 10 µM, 7x7, partner max 10 µM), the figures for the Bliss excess in test [1] and in test [2] were -0.0192 and -0.0819, respectively.

For `N#Cc1cnc(Nc2cc(NC[C@H]3CNCCO3)c(C(F)(F)F)cn2)cn1` [SRA737] + O=c1[nH]cc(F)c(=O)[nH]1 [5-Fluorouracil] (first compound max 10 µM, 7x7, partner max 20 µM), the Bliss excess in test [1] is 0.077; in test [2], 0.0098.

In the case of `N#Cc1cnc(Nc2cc(NC[C@H]3CNCCO3)c(C(F)(F)F)cn2)cn1` [SRA737] + CCc1c2c(nc3ccc(O)cc13)-c1cc3c(c(=O)n1C2)COC(=O)[C@]3(O)CC [SN-38] (first compound max 10 µM, 7x7, partner max 0.3 µM), the Bliss excess is -0.0153 in test [1] and -0.0232 in test [2].

As for `Cc1c2c(nn1C)CSCc1cc(n(C)n1)CSc1cc(c3ccccc3c1)OCCCc1c(C(=O)O)n(C)c3c-2c(Cl)ccc13` [AZD5991] + CS(=O)(=O)CCNCc1ccc(-c2ccc3ncnc(Nc4ccc(OCc5cccc(F)c5)c(Cl)c4)c3c2)o1 [Lapatinib] (first compound max 1 µM, 7x7, partner max 10 µM), the Bliss excess was -0.0053 in test [1] and -0.0655 in test [2].

As for `Cc1c2c(nn1C)CSCc1cc(n(C)n1)CSc1cc(c3ccccc3c1)OCCCc1c(C(=O)O)n(C)c3c-2c(Cl)ccc13` [AZD5991] + CC(=O)O[C@H]1C(=O)[C@@]2(C)[C@H]([C@H](OC(=O)c3ccccc3)[C@]3(O)C[C@H](OC(=O)[C@H](O)[C@@H](NC(=O)c4ccccc4)c4ccccc4)C(C)=C1C3(C)C)[C@]1(OC(C)=O)CO[C@@H]1C[C@@H]2O [Paclitaxel] (first compound max 1 µM, 7x7, partner max 3 µM), the figures for the Bliss excess in test [1] and in test [2] were 0.0035 and -0.0046, respectively.

Take `C[C@@H](Nc1cc(F)cc(F)c1)c1cc(C(=O)N(C)C)cc2c(=O)cc(N3CCOCC3)oc12` [AZD8186] + CC(=O)c1c(C)c2cnc(Nc3ccc(N4CCNCC4)cn3)nc2n(C2CCCC2)c1=O [Palbociclib] (first compound max 10 µM, 7x7, partner max 10 µM): the results for the Bliss excess in test [1] and in test [2] were 0.147 and 0.0478, respectively.

With `CS(=O)(=O)CCNCc1ccc(-c2ccc3ncnc(Nc4ccc(OCc5cccc(F)c5)c(Cl)c4)c3c2)o1` [Lapatinib] + NC1(c2ccc(-c3nc4ccn5c(=O)[nH]nc5c4cc3-c3ccccc3)cc2)CCC1 [MK-2206] (first compound max 10 µM, 7x7, partner max 10 µM), the Bliss excess in test [1] was 0.0229; in test [3], -0.247; in test [4], 0.0488; in test [5], 0.0724; in test [2] it was 0.0266. The “combination Emax” value came to 0.94 in test [6], 0.509 in test [7] and 0.969 in test [8].

Turning to `CN(CCO)CC[C@H](CSc1ccccc1)Nc1ccc(S(=O)(=O)NC(=O)c2ccc(N3CCC([C@@H](O)c4ccccc4-c4ccc(Cl)cc4)CC3)cc2)cc1S(=O)(=O)C(F)(F)F` [AZD4320] + CS(=O)(=O)CCNCc1ccc(-c2ccc3ncnc(Nc4ccc(OCc5cccc(F)c5)c(Cl)c4)c3c2)o1 [Lapatinib] (first compound max 1 µM, 7x7, partner max 10 µM), the Bliss excess came out at 0.0862 in test [1] and 0.0668 in test [2].
